Source: paper PMC12446476 (Nature Communications, 2025)
In brackets after ≈: the same amount, converted by molar mass. Like-named read-outs stand apart in the source and are kept apart here.

Tested on: non-gonococcal Neisseria
Test: MIC determination for non-gonococcal Neisseria, agar dilution
Type: cell-based, Neisseria species
Text: The 2024 WHO N. gonorrhoeae reference strains were used for quality control. Only whole MIC doubling dilutions are reported. Clinical breakpoints or the epidemiological cutoff (ECOFF, to indicate azithromycin resistance) from EUCAST (v14.0, https://www.eucast.org/clinical_breakpoints) were used to classify isolates as antimicrobial susceptible or resistant. […] Two times the standard inoculum defined by CLSI was used to establish consistent growth in untreated control samples for some strains. In vitro time-kill assays were performed according to CLSI guidelines[65] using Columbia Broth (BD Difco) supplemented with 1% IsoVitaleX Enrichment (BD). Viable bacterial counts were generated by plating 10-fold serially diluted samples on GC agar plates containing 1% IsoVitaleX Enrichment (BD).

SMILES: Cc1c(CN(C)C(=O)/C=C/c2cnc3c(c2)N[C@H](C)[C@H](O)C(=O)N3)oc2ccccc12 [Debio 1453]
- MIC (Neisseria perflava 25, Replicate 3, read-out: Minimum inhibitory concentration): 1 µg/mL (≈ 2.38 µM)
- MIC (Neisseria polysaccharea 2, Consensus, read-out: Minimum inhibitory concentration): 0.064 µg/mL (≈ 0.152 µM)
- MIC (Neisseria polysaccharea 2, Replicate 1, read-out: Minimum inhibitory concentration): 0.064 µg/mL (≈ 0.152 µM)
- MIC (Neisseria polysaccharea 2, Replicate 2, read-out: Minimum inhibitory concentration): 0.064 µg/mL (≈ 0.152 µM)
- MIC (Neisseria polysaccharea 2, Replicate 3, read-out: Minimum inhibitory concentration): 0.064 µg/mL (≈ 0.152 µM)
- MIC (Neisseria sicca 1, Consensus, read-out: Minimum inhibitory concentration): 0.5 µg/mL (≈ 1.19 µM)
- MIC (Neisseria sicca 1, Replicate 1, read-out: Minimum inhibitory concentration): 0.25 µg/mL (≈ 0.595 µM)
- MIC (Neisseria sicca 1, Replicate 2, read-out: Minimum inhibitory concentration): 0.5 µg/mL (≈ 1.19 µM)
- MIC (Neisseria sicca 1, Replicate 3, read-out: Minimum inhibitory concentration): 0.5 µg/mL (≈ 1.19 µM)
- MIC (Neisseria sicca 2, Consensus, read-out: Minimum inhibitory concentration): 0.25 µg/mL (≈ 0.595 µM)
- MIC (Neisseria sicca 2, Replicate 1, read-out: Minimum inhibitory concentration): 0.25 µg/mL (≈ 0.595 µM)
- MIC (Neisseria sicca 2, Replicate 2, read-out: Minimum inhibitory concentration): 0.25 µg/mL (≈ 0.595 µM)
- MIC (Neisseria sicca 2, Replicate 3, read-out: Minimum inhibitory concentration): 0.5 µg/mL (≈ 1.19 µM)
- MIC (Neisseria sicca 3, Consensus, read-out: Minimum inhibitory concentration): 0.008 µg/mL (≈ 0.019 µM)
- MIC (Neisseria sicca 3, Replicate 1, read-out: Minimum inhibitory concentration): 0.008 µg/mL (≈ 0.019 µM)
- MIC (Neisseria sicca 3, Replicate 2, read-out: Minimum inhibitory concentration): 0.016 µg/mL (≈ 0.0381 µM)
- MIC (Neisseria sicca 3, Replicate 3, read-out: Minimum inhibitory concentration): 0.008 µg/mL (≈ 0.019 µM)
- MIC (Neisseria sicca 4, Replicate 3, read-out: Minimum inhibitory concentration): 0.5 µg/mL (≈ 1.19 µM)
- MIC (Neisseria sicca 5, Consensus, read-out: Minimum inhibitory concentration): 0.016 µg/mL (≈ 0.0381 µM)
- MIC (Neisseria sicca 5, Replicate 1, read-out: Minimum inhibitory concentration): 0.008 µg/mL (≈ 0.019 µM)
- MIC (Neisseria sicca 5, Replicate 2, read-out: Minimum inhibitory concentration): 0.016 µg/mL (≈ 0.0381 µM)
- MIC (Neisseria sicca 5, Replicate 3, read-out: Minimum inhibitory concentration): 0.016 µg/mL (≈ 0.0381 µM)
- MIC (Neisseria sicca 6, Consensus, read-out: Minimum inhibitory concentration): 1 µg/mL (≈ 2.38 µM)
- MIC (Neisseria sicca 6, Replicate 1, read-out: Minimum inhibitory concentration): 1 µg/mL (≈ 2.38 µM)
- MIC (Neisseria sicca 6, Replicate 2, read-out: Minimum inhibitory concentration): 1 µg/mL (≈ 2.38 µM)
- MIC (Neisseria sicca 6, Replicate 3, read-out: Minimum inhibitory concentration): 1 µg/mL (≈ 2.38 µM)
- MIC (Neisseria sicca 7, Consensus, read-out: Minimum inhibitory concentration): 0.008 µg/mL (≈ 0.019 µM)
- MIC (Neisseria sicca 7, Replicate 1, read-out: Minimum inhibitory concentration): 0.008 µg/mL (≈ 0.019 µM)
- MIC (Neisseria sicca 7, Replicate 2, read-out: Minimum inhibitory concentration): 0.008 µg/mL (≈ 0.019 µM)
- MIC (Neisseria sicca 7, Replicate 3, read-out: Minimum inhibitory concentration): 0.008 µg/mL (≈ 0.019 µM)
- MIC (Neisseria sicca 8, Consensus, read-out: Minimum inhibitory concentration): 1 µg/mL (≈ 2.38 µM)
- MIC (Neisseria sicca 8, Replicate 1, read-out: Minimum inhibitory concentration): 0.5 µg/mL (≈ 1.19 µM)
- MIC (Neisseria sicca 8, Replicate 2, read-out: Minimum inhibitory concentration): 1 µg/mL (≈ 2.38 µM)
- MIC (Neisseria sicca 8, Replicate 3, read-out: Minimum inhibitory concentration): 1 µg/mL (≈ 2.38 µM)
- MIC (Neisseria sicca 9, Consensus, read-out: Minimum inhibitory concentration): 0.25 µg/mL (≈ 0.595 µM)
- MIC (Neisseria sicca 9, Replicate 1, read-out: Minimum inhibitory concentration): 0.25 µg/mL (≈ 0.595 µM)
- MIC (Neisseria sicca 9, Replicate 2, read-out: Minimum inhibitory concentration): 0.25 µg/mL (≈ 0.595 µM)
- MIC (Neisseria sicca 9, Replicate 3, read-out: Minimum inhibitory concentration): 0.25 µg/mL (≈ 0.595 µM)
- MIC (Neisseria subflava 1, Consensus, read-out: Minimum inhibitory concentration): 2 µg/mL (≈ 4.76 µM)
- MIC (Neisseria subflava 1, Replicate 1, read-out: Minimum inhibitory concentration): 2 µg/mL (≈ 4.76 µM)
- MIC (Neisseria subflava 1, Replicate 2, read-out: Minimum inhibitory concentration): 2 µg/mL (≈ 4.76 µM)
- MIC (Neisseria subflava 1, Replicate 3, read-out: Minimum inhibitory concentration): 2 µg/mL (≈ 4.76 µM)
- MIC (Neisseria subflava 2, Consensus, read-out: Minimum inhibitory concentration): 0.25 µg/mL (≈ 0.595 µM)
- MIC (Neisseria subflava 2, Replicate 1, read-out: Minimum inhibitory concentration): 0.25 µg/mL (≈ 0.595 µM)
- MIC (Neisseria subflava 2, Replicate 2, read-out: Minimum inhibitory concentration): 0.25 µg/mL (≈ 0.595 µM)
- MIC (Neisseria subflava 2, Replicate 3, read-out: Minimum inhibitory concentration): 0.25 µg/mL (≈ 0.595 µM)
- MIC (Neisseria subflava 3, Consensus, read-out: Minimum inhibitory concentration): 0.25 µg/mL (≈ 0.595 µM)
- MIC (Neisseria subflava 3, Replicate 1, read-out: Minimum inhibitory concentration): 0.25 µg/mL (≈ 0.595 µM)
- MIC (Neisseria subflava 3, Replicate 2, read-out: Minimum inhibitory concentration): 0.25 µg/mL (≈ 0.595 µM)
- MIC (Neisseria subflava 4, Consensus, read-out: Minimum inhibitory concentration): 0.064 µg/mL (≈ 0.152 µM)
- MIC (Neisseria subflava 4, Replicate 1, read-out: Minimum inhibitory concentration): 0.064 µg/mL (≈ 0.152 µM)
- MIC (Neisseria subflava 4, Replicate 2, read-out: Minimum inhibitory concentration): 0.064 µg/mL (≈ 0.152 µM)
- MIC (Neisseria subflava 4, Replicate 3, read-out: Minimum inhibitory concentration): 0.064 µg/mL (≈ 0.152 µM)
- MIC (Neisseria subflava 5, Consensus, read-out: Minimum inhibitory concentration): 0.5 µg/mL (≈ 1.19 µM)
- MIC (Neisseria subflava 5, Replicate 1, read-out: Minimum inhibitory concentration): 0.5 µg/mL (≈ 1.19 µM)
- MIC (Neisseria subflava 5, Replicate 2, read-out: Minimum inhibitory concentration): 0.5 µg/mL (≈ 1.19 µM)
- MIC (Neisseria subflava 5, Replicate 3, read-out: Minimum inhibitory concentration): 0.5 µg/mL (≈ 1.19 µM)
- MIC (po, Neisseria oralis 1, Consensus, read-out: Minimum inhibitory concentration): 0.25 µg/mL (≈ 0.595 µM)
- MIC (po, Neisseria oralis 1, Replicate 1, read-out: Minimum inhibitory concentration): 0.25 µg/mL (≈ 0.595 µM)
- MIC (po, Neisseria oralis 1, Replicate 2, read-out: Minimum inhibitory concentration): 0.25 µg/mL (≈ 0.595 µM)
- MIC (po, Neisseria oralis 1, Replicate 3, read-out: Minimum inhibitory concentration): 0.25 µg/mL (≈ 0.595 µM)
- MIC (read-out: Minimum inhibitory concentration, Neisseria cinerea 4, Consensus): 0.125 µg/mL (≈ 0.297 µM)
- MIC (read-out: Minimum inhibitory concentration, Neisseria cinerea 4, Replicate 1): 0.125 µg/mL (≈ 0.297 µM)
- MIC (read-out: Minimum inhibitory concentration, Neisseria cinerea 4, Replicate 2): 0.125 µg/mL (≈ 0.297 µM)
- MIC (read-out: Minimum inhibitory concentration, Neisseria cinerea 4, Replicate 3): 0.125 µg/mL (≈ 0.297 µM)
- MIC (read-out: Minimum inhibitory concentration, Neisseria cinerea 5, Consensus): 0.125 µg/mL (≈ 0.297 µM)
- MIC (read-out: Minimum inhibitory concentration, Neisseria cinerea 5, Replicate 1): 0.125 µg/mL (≈ 0.297 µM)
- MIC (read-out: Minimum inhibitory concentration, Neisseria cinerea 5, Replicate 2): 0.125 µg/mL (≈ 0.297 µM)
- MIC (read-out: Minimum inhibitory concentration, Neisseria cinerea 5, Replicate 3): 0.125 µg/mL (≈ 0.297 µM)
- MIC (read-out: Minimum inhibitory concentration, Neisseria cinerea 8, Consensus): 0.125 µg/mL (≈ 0.297 µM)
- MIC (read-out: Minimum inhibitory concentration, Neisseria cinerea 8, Replicate 2): 0.125 µg/mL (≈ 0.297 µM)
- MIC (read-out: Minimum inhibitory concentration, Neisseria cinerea 8, Replicate 3): 0.125 µg/mL (≈ 0.297 µM)
- MIC (read-out: Minimum inhibitory concentration, Neisseria elongata 1, Consensus): 0.125 µg/mL (≈ 0.297 µM)
- MIC (read-out: Minimum inhibitory concentration, Neisseria elongata 1, Replicate 1): 0.125 µg/mL (≈ 0.297 µM)
- MIC (read-out: Minimum inhibitory concentration, Neisseria elongata 1, Replicate 2): 0.125 µg/mL (≈ 0.297 µM)
- MIC (read-out: Minimum inhibitory concentration, Neisseria elongata 1, Replicate 3): 0.125 µg/mL (≈ 0.297 µM)
- MIC (read-out: Minimum inhibitory concentration, Neisseria flava 1, Consensus): 0.125 µg/mL (≈ 0.297 µM)
- MIC (read-out: Minimum inhibitory concentration, Neisseria flava 1, Replicate 1): 0.125 µg/mL (≈ 0.297 µM)
- MIC (read-out: Minimum inhibitory concentration, Neisseria flava 1, Replicate 3): 0.125 µg/mL (≈ 0.297 µM)
- MIC (read-out: Minimum inhibitory concentration, Neisseria flavescens 2, Consensus): 0.125 µg/mL (≈ 0.297 µM)
- MIC (read-out: Minimum inhibitory concentration, Neisseria flavescens 2, Replicate 1): 0.125 µg/mL (≈ 0.297 µM)
- MIC (read-out: Minimum inhibitory concentration, Neisseria flavescens 2, Replicate 3): 0.125 µg/mL (≈ 0.297 µM)
- MIC (read-out: Minimum inhibitory concentration, Neisseria flavescens 8, Consensus): 0.125 µg/mL (≈ 0.297 µM)
- MIC (read-out: Minimum inhibitory concentration, Neisseria flavescens 8, Replicate 2): 0.125 µg/mL (≈ 0.297 µM)
- MIC (read-out: Minimum inhibitory concentration, Neisseria flavescens 8, Replicate 3): 0.125 µg/mL (≈ 0.297 µM)
- MIC (read-out: Minimum inhibitory concentration, Neisseria flavescens 10, Consensus): 0.125 µg/mL (≈ 0.297 µM)
- MIC (read-out: Minimum inhibitory concentration, Neisseria flavescens 10, Replicate 1): 0.125 µg/mL (≈ 0.297 µM)
- MIC (read-out: Minimum inhibitory concentration, Neisseria flavescens 10, Replicate 3): 0.125 µg/mL (≈ 0.297 µM)
- MIC (read-out: Minimum inhibitory concentration, Neisseria flavescens 12, Replicate 3): 0.125 µg/mL (≈ 0.297 µM)
- MIC (read-out: Minimum inhibitory concentration, Neisseria mucosa 2, Consensus): 0.125 µg/mL (≈ 0.297 µM)
- MIC (read-out: Minimum inhibitory concentration, Neisseria mucosa 2, Replicate 2): 0.125 µg/mL (≈ 0.297 µM)
- MIC (read-out: Minimum inhibitory concentration, Neisseria mucosa 2, Replicate 3): 0.125 µg/mL (≈ 0.297 µM)
- MIC (read-out: Minimum inhibitory concentration, Neisseria perflava 5, Consensus): 0.125 µg/mL (≈ 0.297 µM)
- MIC (read-out: Minimum inhibitory concentration, Neisseria perflava 5, Replicate 1): 0.125 µg/mL (≈ 0.297 µM)
- MIC (read-out: Minimum inhibitory concentration, Neisseria perflava 5, Replicate 2): 0.125 µg/mL (≈ 0.297 µM)
- MIC (read-out: Minimum inhibitory concentration, Neisseria perflava 5, Replicate 3): 0.125 µg/mL (≈ 0.297 µM)
- MIC (read-out: Minimum inhibitory concentration, Neisseria perflava 18, Consensus): 0.125 µg/mL (≈ 0.297 µM)
- MIC (read-out: Minimum inhibitory concentration, Neisseria perflava 18, Replicate 1): 0.125 µg/mL (≈ 0.297 µM)
- MIC (read-out: Minimum inhibitory concentration, Neisseria perflava 18, Replicate 3): 0.125 µg/mL (≈ 0.297 µM)
- MIC (read-out: Minimum inhibitory concentration, Neisseria perflava 24, Consensus): 0.125 µg/mL (≈ 0.297 µM)
- MIC (read-out: Minimum inhibitory concentration, Neisseria perflava 24, Replicate 1): 0.125 µg/mL (≈ 0.297 µM)
- MIC (read-out: Minimum inhibitory concentration, Neisseria perflava 24, Replicate 2): 0.125 µg/mL (≈ 0.297 µM)
- MIC (read-out: Minimum inhibitory concentration, Neisseria perflava 24, Replicate 3): 0.125 µg/mL (≈ 0.297 µM)
- MIC (read-out: Minimum inhibitory concentration, Neisseria polysaccharea 1, Consensus): 0.125 µg/mL (≈ 0.297 µM)
- MIC (read-out: Minimum inhibitory concentration, Neisseria polysaccharea 1, Replicate 1): 0.125 µg/mL (≈ 0.297 µM)
- MIC (read-out: Minimum inhibitory concentration, Neisseria polysaccharea 1, Replicate 2): 0.125 µg/mL (≈ 0.297 µM)
- MIC (read-out: Minimum inhibitory concentration, Neisseria polysaccharea 1, Replicate 3): 0.125 µg/mL (≈ 0.297 µM)
- MIC (read-out: Minimum inhibitory concentration, Neisseria sicca 4, Consensus): 0.125 µg/mL (≈ 0.297 µM)
- MIC (read-out: Minimum inhibitory concentration, Neisseria sicca 4, Replicate 1): 0.125 µg/mL (≈ 0.297 µM)
- MIC (read-out: Minimum inhibitory concentration, Neisseria sicca 4, Replicate 2): 0.125 µg/mL (≈ 0.297 µM)
- MIC (read-out: Minimum inhibitory concentration, Neisseria subflava 3, Replicate 3): 0.125 µg/mL (≈ 0.297 µM)
